# Data as given in patent US20180161400A1 (Emisphere Technologies, Inc., priority 2004, published 2018).
# Values joined by “and” are separate entries in the source; they are usually repeats but may differ in a detail not shown here. Equal entries are not always repeated. Structures can show the parent of a compound that is named as a salt.
# How the values were obtained:
# [1] = cited from earlier work
# [2] = system: people with Type 2 diabetes; details: cited from earlier work
# Type 2 diabetics = details: cited from earlier work
# [3] = cited from earlier work; remark: listed apart in the source
# [4] = system: patients with impaired glucose tolerance; details: compared with placebo, over 2.8 years; cited from earlier work
# Sprague Dawley rats = assay: Single oral gavage of insulin/4-CNAB/metformin solutions to fasted rats, blood glucose by hand-held glucometer; type: in vivo; details: for Percent Change in Glucose (from baseline), Mean / Blood Glucose, Mean: group mean n=5; for Percent Change in Glucose Compared to Carrier Alone, Mean: group mean; for Percent Change in Glucose Compared to Carrier Alone: individual rat vs vehicle group mean; for Percent Change in Glucose (from baseline) / Blood Glucose: individual rat
# Method: These solutions were sonicated at 35° C. and the pH adjusted to 6.5-8.5 with sodium hydroxide.
# Sprague Dawley rats were fasted overnight (16-24 h) and were divided into five groups for oral dosing (n=5 per group). Each rat received a single oral dose (by gavage) of dosing solution at a final dose volume of 1 mL/kg. […] The study also included a control group that received an oral dose of vehicle (water) alone. Blood samples were collected by the tail clip method at 0, 15, 30, 45, 60, 120, 180, 240 and 300 minutes and blood glucose was measured immediately using a hand-held glucometer.
# [5] = cited from earlier work; remark: listed apart in the source
# [6] = in vivo; cited from earlier work
# [7] = 15 min, listed as Metformin (450)
# [8] = 30 min, listed as Metformin (450)
# [9] = 45 min, listed as Metformin (450)
# [10] = 60 min, listed as Metformin (450)
# [11] = 120 min, listed as Metformin (450)
# [12] = 180 min, listed as Metformin (450)
# [13] = 240 min, listed as Metformin (450)
# [14] = 300 min, listed as Metformin (450)
compound,measurement,setting,value
CN(C)C(=N)N=C(N)N [Metformin hydrochloride],pH of a 1% aqueous solution,[1],6.68
"CN(C)C(=N)N=C(N)N [Metformin, 1,1-Dimethylbiguanidine]",decrease in heart attacks,"[2]; 10 year UKPDS, Type 2 diabetes",39%
same,decrease in overall mortality,"[2]; 10 year UKPDS, Type 2 diabetes",36%
same,reduction of raised plasma insulin levels,Type 2 diabetics; cases of metabolic syndrome,≤ 30%
same,"lowering of A1c, average","Type 2 diabetics; human, in vivo",1.5%
same,"lowering of fasting blood glucose levels, average","Type 2 diabetics; human, in vivo",25%
same,lowering of postprandial blood glucose,"Type 2 diabetics; human, in vivo",up to 44.5%
same,times less likely to cause lactic acidosis,[3]; compared with phenformin,20 times
same,"Lactic acidosis occurrence, once in every ... of use",[3]; in vivo,"30,000 person-years"
same,mortality rate of lactic acidosis,[3]; in vivo,about 40%
same,reduction of the incidence of type 2 diabetes,[4],31%
same,time of maximum decline in blood glucose,Sprague Dawley rats; after oral administration,about 45 minutes
same,"Percent Change in Glucose (from baseline), Mean",Sprague Dawley rats; 0 min,0.000%
same,"Blood Glucose, Mean","Sprague Dawley rats; 0 min (pre-dose baseline), label doses mg/kg oral",99.000 mg/dL
same,"Percent Change in Glucose (from baseline), Mean",Sprague Dawley rats; 15 min,2.053%
same,"Blood Glucose, Mean",Sprague Dawley rats; 15 min after single oral dose,101.200 mg/dL
same,"Percent Change in Glucose (from baseline), Mean",Sprague Dawley rats; 30 min,−3.264%
same,"Blood Glucose, Mean",Sprague Dawley rats; 30 min after single oral dose,95.600 mg/dL
same,"Percent Change in Glucose (from baseline), Mean",Sprague Dawley rats; 45 min,−13.716%
same,"Blood Glucose, Mean",Sprague Dawley rats; 45 min after single oral dose,85.200 mg/dL
same,"Percent Change in Glucose (from baseline), Mean",Sprague Dawley rats; 60 min,−17.653%
same,"Blood Glucose, Mean",Sprague Dawley rats; 60 min after single oral dose,81.200 mg/dL
same,"Percent Change in Glucose (from baseline), Mean",Sprague Dawley rats; 120 min,−35.050%
same,"Blood Glucose, Mean",Sprague Dawley rats; 120 min after single oral dose,63.800 mg/dL
same,"Percent Change in Glucose (from baseline), Mean",Sprague Dawley rats; 180 min,−38.670%
same,"Blood Glucose, Mean",Sprague Dawley rats; 180 min after single oral dose,60.400 mg/dL
same,"Percent Change in Glucose (from baseline), Mean",Sprague Dawley rats; 240 min,−40.832%
same,"Blood Glucose, Mean",Sprague Dawley rats; 240 min after single oral dose,58.200 mg/dL
same,"Percent Change in Glucose (from baseline), Mean",Sprague Dawley rats; 300 min,−37.001%
same,"Blood Glucose, Mean",Sprague Dawley rats; 300 min after single oral dose,62.400 mg/dL
same,maximum decline in blood glucose from baseline,Sprague Dawley rats; group mean percent change at the peak time stated in the text,−40.832%
same,"Percent Change in Glucose Compared to Carrier Alone, Mean",Sprague Dawley rats; 0 min,18.990%
same,"Percent Change in Glucose Compared to Carrier Alone, Mean",Sprague Dawley rats; 15 min,4.521%
same,"Percent Change in Glucose Compared to Carrier Alone, Mean",Sprague Dawley rats; 30 min,7.223%
same,"Percent Change in Glucose Compared to Carrier Alone, Mean",Sprague Dawley rats; 45 min,−0.770%
same,"Percent Change in Glucose Compared to Carrier Alone, Mean",Sprague Dawley rats; 60 min,1.563%
same,"Percent Change in Glucose Compared to Carrier Alone, Mean",Sprague Dawley rats; 120 min,−4.797%
same,"Percent Change in Glucose Compared to Carrier Alone, Mean",Sprague Dawley rats; 180 min,−9.824%
same,"Percent Change in Glucose Compared to Carrier Alone, Mean",Sprague Dawley rats; 240 min,−12.757%
same,"Percent Change in Glucose Compared to Carrier Alone, Mean",Sprague Dawley rats; 300 min,−2.733%
same,Percent Change in Glucose Compared to Carrier Alone,"Sprague Dawley rats; 0 min, listed as Metformin (450)",29.808% and 5.769% and 12.981% and 17.788% and 28.606%
same,Percent Change in Glucose Compared to Carrier Alone,Sprague Dawley rats; [7],−8.511% and 2.128% and 6.383% and 16.085%
same,Percent Change in Glucose Compared to Carrier Alone,Sprague Dawley rats; [8],−4.063% and 8.352% (2×) and 16.253%
same,Percent Change in Glucose Compared to Carrier Alone,Sprague Dawley rats; [9],−8.768% and 5.450% and −2.844% and 3.081%
same,Percent Change in Glucose Compared to Carrier Alone,Sprague Dawley rats; [10],−7.500% and 5.000% (2×) and 3.750%
same,Percent Change in Glucose Compared to Carrier Alone,Sprague Dawley rats; [11],−6.977% and 4.651% and −17.151% and 0.291%
same,Percent Change in Glucose Compared to Carrier Alone,Sprague Dawley rats; [12],−22.287% and −0.293% and −7.625% and −9.091%
same,Percent Change in Glucose Compared to Carrier Alone,Sprague Dawley rats; [13],−17.889% and −4.692% and −20.821% and −7.625%
same,Percent Change in Glucose Compared to Carrier Alone,Sprague Dawley rats; [14],−6.752% and 9.325% and −34.084% and 20.579%
same,Percent Change in Glucose (from baseline),Sprague Dawley rats; 0 min,0.000%
same,Blood Glucose,"Sprague Dawley rats; 0 min (pre-dose baseline), label doses mg/kg oral, listed as Metformin (450)",108 mg/dL and 88 mg/dL and 94 mg/dL and 98 mg/dL and 107 mg/dL
same,Percent Change in Glucose (from baseline),Sprague Dawley rats; [7],4.630% and −2.273% and 2.128% and 2.041% and 3.738%
same,Blood Glucose,"Sprague Dawley rats; 15 min after single oral dose, label doses mg/kg, listed as Metformin (450)",113 mg/dL and 86 mg/dL and 96 mg/dL and 100 mg/dL and 111 mg/dL
same,Percent Change in Glucose (from baseline),Sprague Dawley rats; [8],−9.259% and −3.409% and 2.128% and −2.041% and −3.738%
same,Blood Glucose,"Sprague Dawley rats; 30 min after single oral dose, label doses mg/kg, listed as Metformin (450)",98 mg/dL and 85 mg/dL and 96 mg/dL (2×) and 103 mg/dL
same,Percent Change in Glucose (from baseline),Sprague Dawley rats; [9],−15.741% and −12.500% and −5.319% and −16.327% and −18.692%
same,Blood Glucose,"Sprague Dawley rats; 45 min after single oral dose, label doses mg/kg, listed as Metformin (450)",91 mg/dL and 77 mg/dL and 89 mg/dL and 82 mg/dL and 87 mg/dL
same,Percent Change in Glucose (from baseline),Sprague Dawley rats; [10],−25.000% and −15.909% and −10.638% and −14.286% and −22.430%
same,Blood Glucose,"Sprague Dawley rats; 60 min after single oral dose, label doses mg/kg, listed as Metformin (450)",81 mg/dL and 74 mg/dL and 84 mg/dL (2×) and 83 mg/dL
same,Percent Change in Glucose (from baseline),Sprague Dawley rats; [11],−47.222% and −27.273% and −23.404% and −41.837% and −35.514%
same,Blood Glucose,"Sprague Dawley rats; 120 min after single oral dose, label doses mg/kg, listed as Metformin (450)",57 mg/dL (2×) and 64 mg/dL and 72 mg/dL and 69 mg/dL
same,Percent Change in Glucose (from baseline),Sprague Dawley rats; [12],−48.148% and −39.773% and −27.660% and −35.714% and −42.056%
same,Blood Glucose,"Sprague Dawley rats; 180 min after single oral dose, label doses mg/kg, listed as Metformin (450)",56 mg/dL and 53 mg/dL and 68 mg/dL and 63 mg/dL and 62 mg/dL
same,Percent Change in Glucose (from baseline),Sprague Dawley rats; [13],−50.926% and −36.364% and −30.851% and −44.898% and −41.121%
same,Blood Glucose,"Sprague Dawley rats; 240 min after single oral dose, label doses mg/kg, listed as Metformin (450)",56 mg/dL (2×) and 65 mg/dL and 54 mg/dL and 63 mg/dL
same,Percent Change in Glucose (from baseline),Sprague Dawley rats; [14],−35.185% and −34.091% and −27.660% and −58.163% and −29.907%
same,Blood Glucose,"Sprague Dawley rats; 300 min after single oral dose, label doses mg/kg, listed as Metformin (450)",70 mg/dL and 58 mg/dL and 68 mg/dL and 41 mg/dL and 75 mg/dL
same,non-absorbed fraction recovered in feces,[5]; after an oral dose,20-30%
same,maximum metformin plasma levels (Cmax),"[5]; controlled clinical trials, even at maximum doses",≤ 4000 ng/mL
same,steady state plasma concentrations,[5]; usual doses and dosing schedules,less than 1 μg/mL
CCCNC(=O)NS(=O)(=O)c1ccc(Cl)cc1 [chlorpropamide],average weight gain,[2]; UKPDS intensive therapy,2.6 kg
Glargine insulin: long-acting insulin,duration of activity,[6],24 h
same,peak effect,[6],no peak effect
